What was measured:
Assay in all cases: relative viability (nuclei count vs DMSO), 5 days (fraction); higher = more cells survive
NCI-H2087 = test system: NCI-H2087
Summary of the method: (§1)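 Lung cancer cell lines in 1536-well plates got either a single drug or a fixed anchor-drug dose together with five library-drug doses (not always all listed) in √10 steps, by pin tool, on the day after seeding. Nuclei were counted after 5 days, and relative viability is the treated-to-vehicle ratio of nuclei counts. Values are medians of duplicate plates.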

NCI-H1944 = test system: NCI-H1944
Summary of the method: as §1

NCI-H1651 = test system: NCI-H1651
Summary of the method: as §1

LC-2-ad = test system: LC-2-ad
Summary of the method: as §1

LOU-NH91 = test system: LOU-NH91
Summary of the method: as §1

RERF-LC-KJ = test system: RERF-LC-KJ
Summary of the method: as §1

ABC-1 = test system: ABC-1
Summary of the method: as §1

NCI-H2228 = test system: NCI-H2228
Summary of the method: as §1

PC-3 [JPC-3] = test system: PC-3 [JPC-3]
Summary of the method: as §1

NCI-H3122 = test system: NCI-H3122
Summary of the method: as §1

LU99A = test system: LU99A
Summary of the method: as §1

NCI-H2405 = test system: NCI-H2405
Summary of the method: as §1

HCC-78 = test system: HCC-78
Summary of the method: as §1

NCI-H1755 = test system: NCI-H1755
Summary of the method: as §1

NCI-H1395 = test system: NCI-H1395
Summary of the method: as §1

NCI-H460 = test system: NCI-H460
Summary of the method: as §1

CAL-12T = test system: CAL-12T
Summary of the method: as §1

UMC-11 = test system: UMC-11
Summary of the method: as §1

HCC-366 = test system: HCC-366
Summary of the method: as §1

NCI-H1793 = test system: NCI-H1793
Summary of the method: as §1

Work on `Cc1sc2c(c1C)C(c1ccc(Cl)cc1)=N[C@@H](CC(=O)OC(C)(C)C)c1nnc(C)n1-2` [JQ1] + C[C@]1(O)C[C@@H](c2nc(-c3ccc4ccc(-c5ccccc5)nc4c3)c3c(N)nccn32)C1 [Linsitinib] (partner 1 µM) yielded a relative viability (NCI-H2087; first compound 0.04 µM) of 1.02, a relative viability (NCI-H2087; first compound 0.4 µM) of 0.69 and a relative viability (NCI-H2087; first compound 1.265 µM) of 0.456. It also gave a relative viability (NCI-H2087; first compound 4 µM) of 0.508, a relative viability (NCI-H1944; first compound 0.04 µM) of 1.15 and a relative viability (NCI-H1944; first compound 0.1265 µM) of 0.874. The relative viability (NCI-H1944; first compound 0.4 µM) was 0.922, the relative viability (NCI-H1944; first compound 1.265 µM) was 0.623 and the relative viability (NCI-H1944; first compound 4 µM) was 0.557. For the same molecule, the relative viability (NCI-H1651; first compound 0.04 µM) was 0.776, the relative viability (NCI-H1651; first compound 0.1265 µM) was 0.871 and the relative viability (NCI-H1651; first compound 0.4 µM) was 0.797. It also gave a relative viability (NCI-H1651; first compound 1.265 µM) of 0.433, a relative viability (NCI-H1651; first compound 4 µM) of 0.468 and a relative viability (LC-2-ad; first compound 0.04 µM) of 0.753. It also gave a relative viability (LC-2-ad; first compound 0.1265 µM) of 0.773, a relative viability (LC-2-ad; first compound 0.4 µM) of 0.463 and a relative viability (LC-2-ad; first compound 1.265 µM) of 0.253. For the same molecule, the relative viability (LC-2-ad; first compound 4 µM) was 0.265, the relative viability (LOU-NH91; first compound 0.04 µM) was 0.905 and the relative viability (LOU-NH91; first compound 0.1265 µM) was 0.777. The relative viability (LOU-NH91; first compound 0.4 µM) was 0.579, the relative viability (LOU-NH91; first compound 1.265 µM) was 0.474 and the relative viability (LOU-NH91; first compound 4 µM) was 0.489. It also gave a relative viability (RERF-LC-KJ; first compound 0.04 µM) of 0.865, a relative viability (RERF-LC-KJ; first compound 0.1265 µM) of 1.07 and a relative viability (RERF-LC-KJ; first compound 0.4 µM) of 0.91. The relative viability (RERF-LC-KJ; first compound 1.265 µM) was 0.782, the relative viability (RERF-LC-KJ; first compound 4 µM) was 0.631 and the relative viability (ABC-1; first compound 0.04 µM) was 0.716. It also gave a relative viability (ABC-1; first compound 0.1265 µM) of 0.772, a relative viability (ABC-1; first compound 0.4 µM) of 0.564 and a relative viability (ABC-1; first compound 1.265 µM) of 0.356. For the same molecule, the relative viability (ABC-1; first compound 4 µM) was 0.275, the relative viability (NCI-H2228; first compound 0.04 µM) was 1 and the relative viability (NCI-H2228; first compound 0.1265 µM) was 0.743. It also gave a relative viability (NCI-H2228; first compound 0.4 µM) of 0.688, a relative viability (NCI-H2228; first compound 1.265 µM) of 0.404 and a relative viability (NCI-H2228; first compound 4 µM) of 0.357. It also gave a relative viability (PC-3 [JPC-3]; first compound 0.04 µM) of 0.942, a relative viability (PC-3 [JPC-3]; first compound 0.1265 µM) of 0.998 and a relative viability (PC-3 [JPC-3]; first compound 0.4 µM) of 1.06. It also gave a relative viability (PC-3 [JPC-3]; first compound 1.265 µM) of 0.79, a relative viability (PC-3 [JPC-3]; first compound 4 µM) of 0.666 and a relative viability (NCI-H3122; first compound 0.04 µM) of 0.966. For the same molecule, the relative viability (NCI-H3122; first compound 0.1265 µM) was 0.931, the relative viability (NCI-H3122; first compound 0.4 µM) was 0.97 and the relative viability (NCI-H3122; first compound 1.265 µM) was 0.757. It also gave a relative viability (NCI-H3122; first compound 4 µM) of 0.625, a relative viability (LU99A; first compound 0.04 µM) of 0.573 and a relative viability (LU99A; first compound 0.1265 µM) of 0.516. The relative viability (LU99A; first compound 0.4 µM) was 0.325, the relative viability (LU99A; first compound 1.265 µM) was 0.292 and the relative viability (LU99A; first compound 4 µM) was 0.202. For the same molecule, the relative viability (NCI-H2405; first compound 0.04 µM) was 0.919, the relative viability (NCI-H2405; first compound 0.4 µM) was 0.779 and the relative viability (NCI-H2405; first compound 1.265 µM) was 0.535. It also gave a relative viability (NCI-H2405; first compound 4 µM) of 0.537, a relative viability (HCC-78; first compound 0.04 µM) of 0.536 and a relative viability (HCC-78; first compound 0.1265 µM) of 0.438. It also gave a relative viability (HCC-78; first compound 0.4 µM) of 0.403, a relative viability (HCC-78; first compound 1.265 µM) of 0.255 and a relative viability (HCC-78; first compound 4 µM) of 0.249. The relative viability (NCI-H1755; first compound 0.04 µM) was 0.985, the relative viability (NCI-H1755; first compound 0.1265 µM) was 0.987 and the relative viability (NCI-H1755; first compound 0.4 µM) was 1.01. It also gave a relative viability (NCI-H1755; first compound 1.265 µM) of 0.763, a relative viability (NCI-H1755; first compound 4 µM) of 0.709 and a relative viability (NCI-H1395; first compound 0.04 µM) of 0.983. It also gave a relative viability (NCI-H1395; first compound 0.1265 µM) of 0.797, a relative viability (NCI-H1395; first compound 0.4 µM) of 0.788 and a relative viability (NCI-H1395; first compound 1.265 µM) of 0.562. The relative viability (NCI-H1395; first compound 4 µM) was 0.486, the relative viability (NCI-H460; first compound 0.04 µM) was 0.661 and the relative viability (NCI-H460; first compound 0.1265 µM) was 0.54. It also gave a relative viability (NCI-H460; first compound 0.4 µM) of 0.278, a relative viability (NCI-H460; first compound 1.265 µM) of 0.0494 and a relative viability (NCI-H460; first compound 4 µM) of 0.0357. It also gave a relative viability (CAL-12T; first compound 0.04 µM) of 0.793, a relative viability (CAL-12T; first compound 0.1265 µM) of 0.794 and a relative viability (CAL-12T; first compound 0.4 µM) of 0.68. It also gave a relative viability (CAL-12T; first compound 1.265 µM) of 0.275, a relative viability (CAL-12T; first compound 4 µM) of 0.232 and a relative viability (UMC-11; first compound 0.04 µM) of 0.866. For the same molecule, the relative viability (UMC-11; first compound 0.1265 µM) was 0.793, the relative viability (UMC-11; first compound 0.4 µM) was 0.321 and the relative viability (UMC-11; first compound 1.265 µM) was 0.237. It also gave a relative viability (UMC-11; first compound 4 µM) of 0.203, a relative viability (HCC-366; first compound 0.04 µM) of 0.6 and a relative viability (HCC-366; first compound 0.4 µM) of 0.639. For the same molecule, the relative viability (HCC-366; first compound 1.265 µM) was 0.326, the relative viability (HCC-366; first compound 4 µM) was 0.193 and the relative viability (NCI-H1793; first compound 0.04 µM) was 0.936. The relative viability (NCI-H1793; first compound 0.1265 µM) was 0.755, the relative viability (NCI-H1793; first compound 0.4 µM) was 0.923 and the relative viability (NCI-H1793; first compound 1.265 µM) was 0.715. It also gave a relative viability (NCI-H1793; first compound 4 µM) of 0.952.

Source: the supplement of paper PMC10307832
